Our source for the EC50 values is patent US9751874B2, “Hydroxy containing FXR (NR1H4) modulating compounds” (Gilead Sciences, Inc., priority 2014, dated 2017).

Usually EC50 stands for the concentration giving half of the maximal effect.

Assay [1] addresses T1, human FXR alpha ligand binding domain (Homo sapiens, UniProt Q96RI1).
T1 construct: made in house; host or cells: E. coli BL21(DE3), vector pDEST15
T1 sequence (Q96RI1 187-472 isoform Q96RI1-2): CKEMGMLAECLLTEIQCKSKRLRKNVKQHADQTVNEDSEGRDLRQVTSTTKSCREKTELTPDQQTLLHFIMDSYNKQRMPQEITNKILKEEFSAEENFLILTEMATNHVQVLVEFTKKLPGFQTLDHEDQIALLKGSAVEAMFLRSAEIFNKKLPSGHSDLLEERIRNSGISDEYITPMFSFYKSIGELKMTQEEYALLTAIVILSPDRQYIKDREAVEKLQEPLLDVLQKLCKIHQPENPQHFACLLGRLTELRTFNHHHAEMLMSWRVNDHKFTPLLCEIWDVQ
The assay is described as follows: FRET activity assay (ligand mediated cofactor peptide interaction, LANCE). It counts as biochemical. Particulars: GST-FXR-LBD / biotinylated SRC-1 peptide (676-700), read-out: F EC50. Summed up:
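GST-tagged FXR LBD (aa 187–472, E. coli-expressed) at 20–60 ng/well with 200–600 nM biotinylated SRC-1 peptide (676–700), streptavidin-APC and Eu anti-GST in Tris pH 7.5 buffer, 1% DMSO, equilibrated 1 h dark at room temperature. TR-FRET read as 665/615 nm ratio; agonists raise signal above basal.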

In assay [2] the target is T2, FXR ligand binding domain (Homo sapiens, UniProt Q96RI1).
T2 construct: expressed in transfected cells; host or cells: HEK293 cells, transiently transfected with pCMV-BD-FXR-LBD, pFR-Luc and pRL-CMV
T2 sequence (Q96RI1 187-472 isoform Q96RI1-2): T1 sequence (Q96RI1 187-472 isoform Q96RI1-2)
The assay is described as follows: Mammalian One Hybrid (M1H) assay, Gal4 promoter driven transactivation in HEK293 cells. The class given is cell-based. Particulars: Gal4-FXR-LBD luciferase reporter, 16 h. Summed up:
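HEK293 cells were transiently co-transfected with Gal4-DBD fused to the human FXR LBD (aa 187-472, NM_005123), a 5×GAL4-site firefly luciferase reporter and CMV-Renilla control. Compounds were added 2-4 h post-transfection (vehicle ≤0.1%) in charcoal/dextran-stripped FBS medium for 16 h. Firefly and Renilla luciferase were read sequentially, in triplicate.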
(Reporter assays use an easily measured gene product as a stand-in for the process of interest.)

Regarding `CC(C)c1onc(-c2c(Cl)cccc2Cl)c1CO[C@@H]1C[C@H]2CC[C@@H](C1)[C@]2(O)c1nc2c(F)cc(C(=O)O)cc2s1` [Example 11-51, 2-((1R,3s,5S,8r)-3-((3-(2,6-Dichlorophenyl)-5-isopropylisoxazol-4-yl)methoxy)-8-hydroxybicyclo[3.2.1]octan-8-yl)-4-fluorobenzo[d]thiazole-6-carboxylic acid], the EC50 in assay [1] is 3.7 nM; in assay [2], 0.62 nM.

For `CC(C)(F)c1onc(-c2c(Cl)cccc2Cl)c1CO[C@@H]1C[C@H]2CC[C@@H](C1)[C@]2(O)c1nc2c(F)cc(C(=O)O)cc2s1` [Example 11-52, 2-((1R,3s,5S,8r)-3-((3-(2,6-Dichlorophenyl)-5-(2-fluoropropan-2-yl)isoxazol-4-yl)methoxy)-8-hydroxybicyclo[3.2.1]octan-8-yl)-4-fluorobenzo[d]thiazole-6-carboxylic acid], the values for the half-maximal effective concentration (EC50) in assay [1] and in assay [2] were 4.9 nM and 1.9 nM, respectively.

Take `CC(C)(Cc1cccc([C@]2(O)[C@@H]3CC[C@H]2C[C@H](OCc2c(-c4c(Cl)cccc4Cl)noc2C2CC2)C3)c1)C(=O)O` [Example 11-53, 3-(3-((1R,3s,5S,8r)-3-((5-Cyclopropyl-3-(2,6-dichlorophenyl)isoxazol-4-yl)methoxy)-8-hydroxybicyclo[3.2.1]octan-8-yl)phenyl)-2,2-dimethylpropanoic acid]: the concentration for a half-maximal effect (EC50) in assay [1] was 235 nM; in assay [2], 391 nM.

`CC(C)(O)c1onc(-c2c(Cl)cccc2Cl)c1CO[C@@H]1C[C@H]2CC[C@@H](C1)[C@]2(O)c1nc2c(F)cc(C(=O)O)cc2s1` [Example 11-56, 2-((1R,3s,5S,8r)-3-((3-(2,6-Dichlorophenyl)-5-(2-hydroxypropan-2-yl)isoxazol-4-yl)methoxy)-8-hydroxybicyclo[3.2.1]octan-8-yl)-4-fluorobenzo[d]thiazole-6-carboxylic acid]: the EC50 in assay [1] is 23 nM; in assay [2] it was 290 nM.

Regarding `O=C(O)c1ccc2nc(C3(O)CCC(OCc4c(-c5c(Cl)cccc5Cl)noc4C4CC4)C3)sc2c1` (centres unmarked) [Example 11-57, 2-(3-((5-Cyclopropyl-3-(2,6-dichlorophenyl)isoxazol-4-yl)methoxy)-1-hydroxy-cyclopentyl)benzo[d]thiazole-6-carboxylic acid], the EC50 stood at 31 nM in assay [1] and 29 nM in assay [2].

Turning to `O=C(O)c1ccc2nc([C@]3(O)CC[C@@H](OCc4c(-c5c(Cl)cccc5Cl)noc4C4CC4)CC3)sc2c1F` [Example 14-1, 2-((1s,4s)-4-((5-Cyclopropyl-3-(2,6-dichlorophenyl)isoxazol-4-yl)methoxy)-1-hydroxycyclohexyl)-7-fluorobenzo[d]thiazole-6-carboxylic acid], the half-maximal effective concentration (EC50) in assay [1] came out at 25 nM; in assay [2], 550 nM.

Take `O=C(O)c1c(F)cc2nc([C@]3(O)CC[C@@H](OCc4c(-c5c(Cl)cccc5Cl)noc4C4CC4)CC3)sc2c1F` [Example 14-2, 2-((1s,4s)-4-((5-Cyclopropyl-3-(2,6-dichlorophenyl)isoxazol-4-yl)methoxy)-1-hydroxycyclohexyl)-5,7-difluorobenzo[d]thiazole-6-carboxylic acid]: the results for the EC50 in assay [1] and in assay [2] were 32 nM and 2700 nM, respectively.

For the molecule `O=C(O)C1(Oc2cc(F)cc([C@]3(O)[C@@H]4CC[C@H]3C[C@H](OCc3c(-c5c(Cl)cccc5Cl)noc3C3CC3)C4)c2)CC1` [Example 14-3, 1-(3-((1R,3s,5S,8r)-3-((5-Cyclopropyl-3-(2,6-dichlorophenyl)isoxazol-4-yl)methoxy)-8-hydroxybicyclo[3.2.1]octan-8-yl)-5-fluorophenoxy)cyclopropanecarboxylic acid], the EC50 worked out at 41 nM in assay [1] and 520 nM in assay [2].

On to `O[C@@]1(c2nc3ccc(Br)cc3s2)[C@@H]2CC[C@H]1C[C@H](OCc1c(-c3c(Cl)cccc3Cl)noc1C1CC1)C2` [Example 15-1, (1R,3s,5S,8r)-8-(6-Bromobenzo[d]thiazol-2-yl)-3-((5-cyclopropyl-3-(2,6-dichlorophenyl)isoxazol-4-yl)methoxy)bicyclo[3.2.1]octan-8-ol], for which the values for the half-maximal effective concentration (EC50) in assay [1] and in assay [2] were 37 nM and 77 nM, respectively.

`CS(=O)(=O)NC(=O)c1cc(F)c2nc([C@]3(O)CC[C@@H](OCc4c(-c5c(Cl)cccc5Cl)noc4C4CC4)CC3)sc2c1` [Example 16, 2-((1s,4s)-4-((5-Cyclopropyl-3-(2,6-dichlorophenyl)isoxazol-4-yl)methoxy)-1-hydroxycyclohexyl)-4-fluoro-N-(methylsulfonyl)benzo[d]thiazole-6-carboxamide]: the EC50 in assay [1] worked out at 22 nM; in assay [2], 1900 nM.

`O=C(NCCN1CCOCC1)c1cc(F)c2nc([C@]3(O)CC[C@@H](OCc4c(-c5c(Cl)cncc5Cl)noc4C4CC4)CC3)sc2c1` [Example 17, 2-((1s,4s)-4-((5-Cyclopropyl-3-(3,5-dichloropyridin-4-yl)isoxazol-4-yl)methoxy)-1-hydroxycyclohexyl)-4-fluoro-N-(2-morpholinoethyl)benzo[d]thiazole-6-carboxamide]: the EC50 in assay [1] came out at 150 nM; in assay [2], 670 nM.

In the case of `NC(=O)c1cc(F)c2nc([C@]3(O)CC[C@@H](OCc4c(-c5c(Cl)cncc5Cl)noc4C4CC4)CC3)sc2c1` [Example 18, 2-((1s,4s)-4-((5-Cyclopropyl-3-(3,5-dichloropyridin-4-yl)isoxazol-4-yl)methoxy)-1-hydroxycyclohexyl)-4-fluorobenzo[d]thiazole-6-carboxamide], the values for the concentration giving a half-maximal response (EC50) in assay [1] and in assay [2] were 98 nM and 440 nM, respectively.

For the molecule `CC(C)(O)c1cc(F)c2nc([C@]3(O)CC[C@@H](OCc4c(-c5c(Cl)cncc5Cl)noc4C4CC4)CC3)sc2c1` [Example 20, (1s,4s)-4-((5-Cyclopropyl-3-(3,5-dichloropyridin-4-yl)isoxazol-4-yl)methoxy)-1-(4-fluoro-6-(2-hydroxypropan-2-yl)benzo[d]thiazol-2-yl)cyclohexanol], the values for the EC50 in assay [1] and in assay [2] were 150 nM and 200 nM, respectively.

Take `O[C@]1(c2nc3c(F)cc(-c4nnn[nH]4)cc3s2)CC[C@H](OCc2c(-c3c(Cl)cccc3Cl)noc2C2CC2)CC1` [Example 21, (1s,4s)-4-((5-Cyclopropyl-3-(2,6-dichlorophenyl)isoxazol-4-yl)methoxy)-1-(4-fluoro-6-(1H-tetrazol-5-yl)benzo[d]thiazol-2-yl)cyclohexanol]: the half-maximal effective concentration (EC50) in assay [1] is 64 nM; in assay [2], 1700 nM.

For the molecule `O=C(O)c1cc(F)c2nc([C@]3(O)[C@@H]4CC[C@H]3C[C@H](OCc3c(-c5c(Cl)c[n+]([O-])cc5Cl)noc3C3CC3)C4)sc2c1` [Example 22, 4-(4-((((1R,3s,5S,8r)-8-(6-Carboxy-4-fluorobenzo[d]thiazol-2-yl)-8-hydroxybicyclo[3.2.1]octan-3-yl)oxy)methyl)-5-cyclopropylisoxazol-3-yl)-3,5-dichloropyridine 1-oxide], the EC50 in assay [1] worked out at 3.9 nM; in assay [2], 140 nM.

For `OC1(c2nc3ccccc3s2)C2CC3CC1CC(OCc1c(-c4c(Cl)cccc4Cl)noc1C1CC1)(C3)C2` [Example 24a, (1R,2r,3S,5s,7s)-2-(Benzo[d]thiazol-2-yl)-5-((5-cyclopropyl-3-(2,6-dichlorophenyl)isoxazol-4-yl)methoxy)adamantan-2-ol], the half-maximal effective concentration (EC50) in assay [1] amounted to 49 nM; in assay [2], 140 nM.
